A word on the IC50: it is the midpoint of a concentration-inhibition curve.

Where two headings read alike, the source gives them in different places.

Our source for the IC50 values is US12358915B2, “METTL3 inhibitory compounds” (STORM THERAPEUTICS LTD., priority 2019, dated 2025).

The subject of one assay is MOLM-13 cells. Put plainly: MOLM13 CTG - analysis of cell proliferation (Cell Titre Glo). It counts as cell-based. The conditions noted are these: Homo sapiens, geometric mean, read-out: CTG MOLM13 cells IC50 GEOMEAN.
The target of another assay is T1, METTL3/14 (Homo sapiens, UniProt Q86U44).
T1 construct: The enzyme used was full-length his-tagged METTL3; His; made in house
T1 sequence (Q86U44 whole entry): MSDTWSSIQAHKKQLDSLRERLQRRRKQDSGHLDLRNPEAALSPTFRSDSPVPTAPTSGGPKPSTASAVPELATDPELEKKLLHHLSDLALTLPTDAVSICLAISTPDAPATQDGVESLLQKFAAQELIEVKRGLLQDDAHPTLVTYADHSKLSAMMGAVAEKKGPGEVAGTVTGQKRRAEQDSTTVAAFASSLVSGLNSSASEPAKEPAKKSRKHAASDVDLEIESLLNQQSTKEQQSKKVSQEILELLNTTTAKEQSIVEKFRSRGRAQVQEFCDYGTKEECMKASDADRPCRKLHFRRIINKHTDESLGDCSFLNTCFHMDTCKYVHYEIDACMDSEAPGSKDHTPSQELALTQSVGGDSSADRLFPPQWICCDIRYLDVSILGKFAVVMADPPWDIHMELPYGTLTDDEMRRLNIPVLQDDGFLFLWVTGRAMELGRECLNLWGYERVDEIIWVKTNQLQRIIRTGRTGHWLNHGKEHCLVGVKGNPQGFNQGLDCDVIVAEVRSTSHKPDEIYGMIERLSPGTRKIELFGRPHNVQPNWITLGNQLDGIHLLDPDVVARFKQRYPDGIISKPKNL
T1 sequence (Q9HCE5 whole entry partner): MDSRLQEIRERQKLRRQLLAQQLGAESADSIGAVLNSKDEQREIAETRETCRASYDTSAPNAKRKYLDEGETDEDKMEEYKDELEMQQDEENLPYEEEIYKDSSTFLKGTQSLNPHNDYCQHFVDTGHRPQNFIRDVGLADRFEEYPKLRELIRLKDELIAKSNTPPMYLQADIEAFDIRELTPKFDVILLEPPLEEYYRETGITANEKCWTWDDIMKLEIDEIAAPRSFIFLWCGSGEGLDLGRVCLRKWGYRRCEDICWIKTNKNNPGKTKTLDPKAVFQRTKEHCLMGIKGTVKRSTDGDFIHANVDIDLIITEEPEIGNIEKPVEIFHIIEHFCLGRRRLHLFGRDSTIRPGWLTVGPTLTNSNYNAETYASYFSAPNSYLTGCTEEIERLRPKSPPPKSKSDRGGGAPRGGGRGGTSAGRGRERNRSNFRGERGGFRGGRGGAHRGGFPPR
As to the kind of experiment: METTL3/14 methyltransferase assay (METTL3_14 RFMS, RapidFire mass spectrometry).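 Note: recombinant His-tagged METTL3 with FLAG-tagged METTL14 from baculovirus, SAH product quantified by mass spectrometry against isotope-labelled internal standards, 60 min at room temperature, scaled between no-RNA and DMSO-only wells.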 It counts as biochemical. The conditions noted are these: read-out: METTL3_14 RFMS IC50.

The mark [1] stands for this setting: 5 nM METTL3/14, 0.2 μM RNA substrate, 0.5 μM SAM, lower limit of the assay IC50=5 nM, Compounds 63-265.

Experimental for MOLM-13 cells: MOLM-13 or MOLM-14 cells were plated, in suspension, in 24 well tissue culture plates at final concentration of 200,000/ml, with or without 50 ng/ml IFNγ. […] Cells were incubated for 4 days at 37° C. at which point 600 μl of cell suspension was removed for Mass spectrometry analysis of m6A. 600 μl of fresh media containing the appropriate concentration of METTL3 inhibitor/IFNγ was added to remaining cell suspensions. Cells where then cultured for a further 7 days, cell suspension was sampled for analysis of proliferation and Cell surface markers periodically.
At regular time points (4, 5, 6 &7) days cells were mixed to maintain a homogenous cell suspension. 25 μl of this cell suspension was removed and added to a white 384 well plate, 25 μl of Cell Titre Glo reagent (Promega) was added, and incubated for 10 mins at room temperature before measurement of luminescence intensity, as per the manufacturers instructions.

Consider `CC(C)(NCc1ccc2nc(CNC(=O)c3cc(=O)n4ccccc4n3)cn2c1)c1ccccc1` [Compound 78, 4-oxo-N-[(6-{[(2-phenylpropan-2-yl)amino]methyl}imidazo[1,2-a]pyridin-2-yl)methyl]-4H-pyrido[1,2-a]pyrimidine-2-carboxamide], for which the IC50 in the assay with MOLM-13 cells came to 6040 nM; at METTL3/14 (setting [1]), 163 nM.

`O=C(NCc1cn2cc(CNCC3CC(F)(F)C3)ccc2n1)c1cc(=O)n2ccccc2n1` [Compound 83, N-{[6-({[(3,3-difluoro-cyclobutyl)methyl]amino}methyl)imidazo[1,2-a]pyridin-2-yl]methyl}-4-oxo-4H-pyrido [1,2-a]pyrimidine-2-carboxamide]: the IC50 in the assay with MOLM-13 cells turned out to be 4120 nM; at METTL3/14 (setting [1]) it was 10.6 nM.

For `O=C(NCc1cn2cc(CNCC34CC(C(F)(F)F)(C3)C4)ccc2n1)c1cc(=O)n2ccccc2n1` [Compound 87, 4-oxo-N-({6-[({[3-(trifluoromethyl)bicyclo[1.1.1]pentan-1-yl]methyl}amino)methyl]imidazo[1,2-a]pyridin-2-yl}methyl)-4H-pyrido [1,2-a]pyrimidine-2-carboxamide], the IC50 is not below 30000 nM in the assay with MOLM-13 cells and 48.5 nM at METTL3/14.

On to `O=C(NCc1cn2cc(CNC3(c4ccccc4)COC3)ccc2n1)c1cc(=O)n2ccccc2n1` [Compound 89, 4-oxo-N-[(6-{[(3-phenyloxetan-3-yl)amino]methyl}imidazo[1,2-a]pyridin-2-yl)methyl]-4H-pyrido[1,2-a]pyrimidine-2-carboxamide], for which the IC50 came out at 13100 nM with MOLM-13 cells and 1860 nM on METTL3/14 (setting [1]).

Take `O=C(NCc1cn2cc(CNCCC3CC3)ccc2n1)c1cc(=O)n2ccccc2n1` [Compound 103, N-[(6-{[(2-cyclopropylethyl)amino]methyl}imidazo[1,2-a]pyridin-2-yl)methyl]-4-oxo-4H-pyrido[1,2-a]pyrimidine-2-carboxamide]: the values for the IC50 in the assay with MOLM-13 cells and on METTL3/14 (setting [1]) were 6800 nM and 13.7 nM, respectively.

In the case of `O=C(NCc1cn2cc(CN3CCCCC3)ccc2n1)c1cc(=O)n2ccccc2n1` [Compound 104, 4-oxo-N-({6-[(piperidin-1-yl)methyl]imidazo[1,2-a]pyridin-2-yl}methyl)-4H-pyrido[1,2-a] pyrimidine-2-carboxamide], the IC50 came to 8730 nM with MOLM-13 cells and 69.1 nM on METTL3/14 (setting [1]).

Turning to `O=C(NCc1cn2cc(CN[C@@H]3C[C@H]3C(F)(F)F)ccc2n1)c1cc(=O)n2ccccc2n1` [Compound 112, 4-oxo-N-{[6-({[(1R,2R)-2-(trifluoromethyl)cyclopropyl]amino}methyl)imidazo[1,2-a]pyridin-2-yl]methyl}-4H-pyrido[1,2-a] pyrimidine-2-carboxamide], the figures for the IC50 in the assay with MOLM-13 cells and on METTL3/14 (setting [1]) were 12700 nM and 755 nM, respectively.

Consider `CN(Cc1ccc2nc(CNC(=O)c3cc(=O)n4ccccc4n3)cn2c1)CC1CCCCC1` [Compound 114, N-[(6-{[(cyclohexyl-methyl)(methyl)amino]methyl}imidazo [1,2-a]pyridin-2-yl)methyl]-4-oxo-4H-pyrido [1,2-a]pyrimidine-2-carboxamide], for which the IC50 was found to be 2800 nM in the assay on MOLM-13 cells and 244 nM on METTL3/14 (setting [1]).

Turning to `O=C(NCc1cn2cc(CNC3CCC3)ccc2n1)c1cc(=O)n2ccccc2n1` [Compound 126, N-({6-[(cyclobutylamino)methyl]imidazo [1,2-a]pyridin-2-yl}methyl)-4-oxo-4H-pyrido [1,2-a]pyrimidine-2-carboxamide], the IC50 in the assay on MOLM-13 cells is not below 30000 nM; on METTL3/14 (setting [1]) it was 79.8 nM.

Regarding `CC(C)(C)NCc1ccc2nc(CNC(=O)c3cc(=O)n4ccccc4n3)cn2c1` [Compound 127, N-({6-[(tert-butylamino)methyl]imidazo [1,2-a]pyridin-2-yl}methyl)-4-oxo-4H-pyrido[1,2-a] pyrimidine-2-carboxamide], the results for the IC50 in the assay on MOLM-13 cells and on METTL3/14 (setting [1]) were not below 30000 nM and 429 nM, respectively.

Regarding `O=C(NCc1cn2cc(CNCc3ccccc3)ccc2n1)c1cccc2[nH]ncc12` [Compound 178, N-({6-[(benzylamino)methyl]imidazo [1,2-a]pyridin-2-yl}methyl)-1H-indazole-4-carboxamide], the IC50 in the assay on MOLM-13 cells was 9890 nM; at METTL3/14 (setting [1]), 209 nM.

For `CC1(C)CCN(Cc2ccc3nc(CNC(=O)c4cc(=O)n5ccccc5n4)cn3c2)CC1` [Compound 193, N-({6-[(4,4-dimethylpiperidin-1-yl)methyl]imidazo[1,2-a]pyridin-2-yl}methyl)-4-oxo-4H-pyrido[1,2-a]pyrimidine-2-carboxamide], the values for the IC50 with MOLM-13 cells and at METTL3/14 (setting [1]) were 2460 nM and 12.4 nM, respectively.

Take `CC(C)(C)C(C)(C)NCc1ccc2nc(CNC(=O)c3cc(=O)n4ccccc4n3)cn2c1` [Compound 195, 4-oxo-N-[(6-{[(2,3,3-trimethylbutan-2-yl)amino]methyl}imidazo [1,2-a]pyridin-2-yl)methyl]-4H-pyrido[1,2-a]pyrimidine-2-carboxamide]: the values for the IC50 in the assay with MOLM-13 cells and on METTL3/14 (setting [1]) were 9770 nM and 32.4 nM, respectively.

`CC(NCc1ccc2nc(CNC(=O)c3cc(=O)n4ccccc4n3)cn2c1)C1CCCCC1` (stereo not drawn) [Compound 203, N-[(6-{[(1-cyclohexylethyl)amino]methyl}imidazo[1,2-a]pyridin-2-yl)methyl]-4-oxo-4H-pyrido [1,2-a]pyrimidine-2-carboxamide]: the IC50 with MOLM-13 cells worked out at 8740 nM; at METTL3/14 (setting [1]), 32 nM.

Take `O=C(NCc1cn2cc(CNCC3(F)CCC3)ccc2n1)c1cc(=O)n2ccccc2n1` [Compound 206, N-{[6-({[(1-fluorocyclobutyl)methyl]amino}methyl)imidazo [1,2-a]pyridin-2-yl]methyl}-4-oxo-4H-pyrido [1,2-a]pyrimidine-2-carboxamide]: the IC50 in the assay with MOLM-13 cells was determined as 9130 nM; at METTL3/14 (setting [1]), 15.6 nM.

Regarding `CC1(F)CCN(Cc2ccc3nc(CNC(=O)c4cc(=O)n5ccccc5n4)cn3c2)CC1` [Compound 207, N-({6-[(4-fluoro-4-methylpiperidin-1-yl)methyl]imidazo[1,2-a]pyridin-2-yl}methyl)-4-oxo-4H-pyrido [1,2-a]pyrimidine-2-carboxamide], the IC50 in the assay with MOLM-13 cells worked out at 10200 nM; at METTL3/14 (setting [1]) it was 37.9 nM.

Consider `O=C(NCc1cn2cc(CNCC3(O)CCCCC3)ccc2n1)c1cc(=O)n2ccccc2n1` [Compound 209, N-{[6-({[(1-hydroxycyclohexyl)methyl]amino}methyl)imidazo [1,2-a]pyridin-2-yl]methyl}-4-oxo-4H-pyrido [1,2-a]pyrimidine-2-carboxamide], for which the values for the IC50 in the assay on MOLM-13 cells and at METTL3/14 (setting [1]) were 6580 nM and 10 nM, respectively.

For the compound `O=C(NCc1cn2cc(CNCC3CCCC3)ccc2n1)c1cc(=O)n2ccccc2n1` [Compound 210, N-[(6-{[(cyclopentyl-methyl)amino]methyl}imidazo [1,2-a]pyridin-2-yl)methyl]-4-oxo-4H-pyrido [1,2-a]pyrimidine-2-carboxamide], the IC50 was determined as 5020 nM with MOLM-13 cells and 20.3 nM on METTL3/14 (setting [1]).

In the case of `O=C(NCc1cn2cc(CNCC3CCC(F)(F)C3)ccc2n1)c1cc(=O)n2ccccc2n1` (stereo not drawn) [Compound 211, N-{[6-({[(3,3-difluorocyclopentyl)methyl]amino}methyl)imidazo [1,2-a]pyridin-2-yl]methyl}-4-oxo-4H-pyrido[1,2-a]pyrimidine-2-carboxamide], the IC50 was determined as 11400 nM with MOLM-13 cells and 19.3 nM at METTL3/14 (setting [1]).

As for `O=C(NCc1cn2cc(CNCCC3CC(F)(F)C3)ccc2n1)c1cc(=O)n2ccccc2n1` [Compound 213, N-{[6-({[2-(3,3-difluorocyclo-butyl)ethyl]amino}methyl)imidazo[1,2-a]pyridin-2-yl]methyl}-4-oxo-4H-pyrido [1,2-a]pyrimidine-2-carboxamide], the IC50 in the assay with MOLM-13 cells was not below 30000 nM; at METTL3/14 (setting [1]) it was 41.8 nM.

As for `O=C(NCc1cn2cc(CNCC3CCC3F)ccc2n1)c1cc(=O)n2ccccc2n1` (stereo not drawn) [Compound 214, N-{[6-({[(2-fluorocyclobutyl)methyl]amino}methyl)imidazo [1,2-a]pyridin-2-yl]methyl}-4-oxo-4H-pyrido [1,2-a]pyrimidine-2-carboxamide], the results for the IC50 in the assay on MOLM-13 cells and at METTL3/14 (setting [1]) were 7340 nM and 15.8 nM, respectively.

For `O=C(NCc1cn2cc(CN3CCC4(CC3)CC4)ccc2n1)c1cc(=O)n2ccccc2n1` [Compound 216, N-{[6-({6-azaspiro[2.5]octan-6-yl}methyl)imidazo [1,2-a]pyridin-2-yl]methyl}-4-oxo-4H-pyrido [1,2-a]pyrimidine-2-carboxamide], the IC50 in the assay on MOLM-13 cells was found to be 3510 nM; on METTL3/14 (setting [1]), 14.9 nM.

Consider `O=C(NCc1cn2cc(CNC[C@H]3C[C@H](F)C3)ccc2n1)c1cc(=O)n2ccccc2n1` [Compound 217, 4-oxo-N-({6-[({[(1r,3r)-3-fluorocyclo-butyl]methyl}amino)methyl]imidazo[1,2-a]pyridin-2-yl}methyl)-4H-pyrido[1,2-a] pyrimidine-2-carboxamide], for which the IC50 in the assay with MOLM-13 cells was found to be 2930 nM; on METTL3/14 (setting [1]), 7.58 nM.

Turning to `O=C(NCc1cn2cc(CNCCC3CC3)ccc2n1)c1cc(=O)c2ccccc2o1` [Compound 218], the IC50 with MOLM-13 cells amounted to 4710 nM; on METTL3/14 (setting [1]) it was 26.4 nM.

As for `O=C(NCc1cn2cc(CCNCc3ccccc3)ccc2n1)c1cc(=O)n2ccccc2n1` [Compound 235, N-({6-[2-(benzylamino)ethyl]imidazo[1,2-a]pyridin-2-yl}methyl)-4-oxo-4H-pyrido[1,2-a]pyrimidine-2-carboxamide], the IC50 in the assay with MOLM-13 cells is not below 30000 nM; on METTL3/14 (setting [1]) it was 111 nM.

In the case of `O=C(NCc1cn2cc(CCNC3CCCCC3)ccc2n1)c1cc(=O)n2ccccc2n1` [Compound 236, N-({6-[2-(cyclohexylamino)ethyl]imidazo[1,2-a]pyridin-2-yl}methyl)-4-oxo-4H-pyrido[1,2-a]pyrimidine-2-carboxamide], the IC50 in the assay on MOLM-13 cells worked out at 11800 nM; on METTL3/14 (setting [1]) it was 28.7 nM.

On to `O=C(NCc1ccc2nc(CNC(=O)c3cc(=O)n4ccccc4n3)cn2c1)c1ccccc1` [Compound 237, 4-oxo-N-({6-[(phenylformamido)methyl]imidazo[1,2-a]pyridin-2-yl}methyl)-4H-pyrido[1,2-a]pyrimidine-2-carboxamide], for which the values for the IC50 in the assay on MOLM-13 cells and at METTL3/14 (setting [1]) were 12900 nM and 742 nM, respectively.
